Test results from patent publication US8895579B2, “Heterotricyclic AMPA receptor antagonists for treatment of epilepsy, pain, and other neurological disorders and diseases” (Northwestern University, priority 2010, dated 2014).

Experiments:
[1] = biological target: T1, homomeric GluA3 AMPA receptor (Rattus norvegicus, UniProt P19492); assay: Whole-cell patch clamp of recombinant GluA3 receptors in HEK293-T/17 cells; assay type: cell-based; settings: 30 μM; 10 mM glutamate
T1 construct: expressed in transfected cells; host or cells: HEK293-T/17 (CRL-11268)
T1 sequence (P19492 23-888 isoform P19492-2 limits assumed): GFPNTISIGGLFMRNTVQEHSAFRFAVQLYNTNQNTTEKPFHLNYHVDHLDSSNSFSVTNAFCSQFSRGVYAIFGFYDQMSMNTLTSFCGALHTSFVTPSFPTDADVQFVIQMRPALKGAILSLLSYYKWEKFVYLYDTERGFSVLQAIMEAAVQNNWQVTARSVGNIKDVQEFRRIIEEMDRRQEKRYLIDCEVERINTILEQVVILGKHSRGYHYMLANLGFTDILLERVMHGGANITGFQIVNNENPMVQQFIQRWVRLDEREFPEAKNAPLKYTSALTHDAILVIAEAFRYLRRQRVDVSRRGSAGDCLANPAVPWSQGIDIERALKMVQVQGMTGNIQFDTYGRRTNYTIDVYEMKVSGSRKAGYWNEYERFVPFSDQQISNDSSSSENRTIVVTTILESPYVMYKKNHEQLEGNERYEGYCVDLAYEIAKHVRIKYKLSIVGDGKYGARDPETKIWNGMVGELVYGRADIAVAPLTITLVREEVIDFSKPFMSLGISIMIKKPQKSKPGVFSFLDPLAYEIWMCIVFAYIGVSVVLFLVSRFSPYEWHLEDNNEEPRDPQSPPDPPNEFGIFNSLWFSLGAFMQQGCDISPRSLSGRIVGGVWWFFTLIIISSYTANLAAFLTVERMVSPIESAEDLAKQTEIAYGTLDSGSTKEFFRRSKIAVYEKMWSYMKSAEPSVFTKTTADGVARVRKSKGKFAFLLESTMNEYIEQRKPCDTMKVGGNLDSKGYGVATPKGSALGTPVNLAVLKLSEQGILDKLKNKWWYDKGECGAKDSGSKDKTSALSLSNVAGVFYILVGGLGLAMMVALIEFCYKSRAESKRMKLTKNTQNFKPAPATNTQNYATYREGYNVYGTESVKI
Protocol: Cell Culture and Transfection. Human embryonic kidney cells expressing T-antigen, clone 17 (HEK293-T/17) (CRL-11268) were cultured at 37° C. with 5% CO2 in DMEM, including 100 μg/mL penicillin, 100 μg/mL streptomycin, and 10% heat-inactivated fetal bovine serum. Cells were split twice per week. For transfection, HEK293-T/17 cells were plated at 3×10^4 cells/cm^2 for pharmacology experiments and 5×10^3 cells/cm^2 for physiology experiments in fresh medium 24 h prior to transfection. Cells were transfected with AMPA or KA receptor plasmid cDNAs using Mirus Trans-IT transfection reagent (Minus Bio Corporation, Madison, Wis.) at a ratio of 1 μg cDNA: 3 μL Trans-1T reagent and maintained in transfection medium overnight followed by a media change the next day. Transfected cells were maintained in this medium until the experiment was conducted (48-72 h total post transfection).
Electrophysiology. For analysis of recombinant receptors, HEK293-T/17 cells were co-transfected with 0.2 μg of iGluR cDNA and 0.05 μg of eGFP. For heterologous GluA1/GluA2 receptors, the GluA1:GluA2 cDNA ratio was 1:6. Two to three days post-transfection, eGFP-expressing cells were lifted from the cover slip and voltage clamped in whole cell mode. […]

[2] = system: AMPA receptor EPSCs, CA1 pyramidal neurons; assay: AMPA receptor EPSCs at Schaffer collateral-CA1 synapses, acute hippocampal slices; assay type: cell-based, mouse; settings: 20 μM
Protocol: For recordings from acute hippocampal slices, brains from P15-21 C57Bl/6 mice were sliced transversely (350 μm thickness) in a sucrose slicing solution containing (in mM) 85 NACl, 2.5 KCl, 1.25 NaH2PO4, 25 NaHCO3, 25 glucose, 75 sucrose, 0.5 CaCl2, 4 MgCl2, 0.5 Na ascorbate, 10 μM DL-APV and 100 μM kynurenic acid (pH 7.3). After slicing, the solution was exchanged with an incubation solution containing (in mM) 125 NaCl, 2.4 KCl, 1.2 NaH2PO4, 25 NaHCO3, 25 glucose: 1 CaCl2, 2 MgCl2, 0.5 Na ascorbate, 10 μM DL-APV and 100 μM kynurenic acid (pH 7.3) that was bubbled continuously with CO2-balanced O2 (carbogen). […] Recordings in voltage clamp mode used the CsF/CsCl internal solution and carbogenated external recording solution containing (in mM) 120 NaCl, 2.4 KCl, 2 MgCl2, 1 CaCl2, 25 NaHCO3, 1.2 NaH2PO4, 25 glucose, 10 μM bicuculline methiodide, 50 μM PTX and 50 μM D-APV (pH 7.3). […] NMDA EPSCs were validated by addition of D-APV (50 μM) at the end of each recording. Hippocampal CA1 or CA3 pyramidal cells were voltage clamped at −70 mV and stimulated with a monopolar electrode either the stratum radiatum or stratum lucidum, respectively. IKM compounds were applied for 10 minutes and changes in the peak amplitudes of excitatory post-synaptic currents (EPSCs) and paired-pulse ratios were analyzed during the last two minutes of drug application. EPSC charge transfer, AP frequency, paired-pulse ratio and EPSC peak amplitude were analyzed with Mini-Analysis v6.03 (Synaptosoft, Decatur, Ga.) and Clampfit v10.0 (MDS, Sunnyvale, Calif.) software.

[3] = system: AMPA receptor-mediated EPSCs in primary hippocampal neurons; assay: AMPA receptor EPSC charge transfer during spontaneous synaptic bursts, whole-cell voltage clamp, cultured hippocampal neurons; assay type: cell-based; settings: 30 μM
Protocol: Experiments involving primary hippocampal neurons were carried out as described previously (Vivithanaporn et al., 2007). Dissociated neurons were cultured from E18 prenatal hippocampi and were used for analysis from between 17 and 28 days in vitro. The extracellular solution was the same as used for recombinant receptor analysis, while the internal solution for voltage clamp recordings contained (in mM) 95 CsF, 25 CsCl, 10 Cs-HEPES, 10 EGTA, 2 NaCl, 2 Mg-ATP, 10 QX-314, 5 TEA. and 5 4-AP (pH 7.3) and the internal solution for current clamp recordings contained (in mM) 120 KMeSO4, 5 KCl, 5 NaCl, 1 MgCl2, 11 Na-HEPES, 10 phosphocreatine, 4 Na-ATP, and 0.3 Na-GTP (pH 7.0). Borosilicate patch electrodes were pulled and fire polished to 3-5 MΩ resistance. Both whole cell current clamp and voltage clamp recordings were performed using an Axopatch 200B amplifier (MDS, Sunnyvale, Calif.) and filtered at 20 kHz. Gigaohm seals were established in voltage clamp mode and, after membrane rupture, the recordings were carried out either in voltage clamp (clamped at Vm=−70 mV) with a […] series resistance, which was compensated to ˜60%, or in current clamp mode ([…]) with the bridge balance was corrected and pipette resistance neutralized. In vitro status epilepticus (SE) was induced as described previously (Deshpande et al., 2007; Pal et al., 1999) and action potentials were recorded in current clamp mode. Briefly for in vitro SE, magnesium-containing external solution was exchanged for external solution without magnesium and supplemented with 2 μM glycine. This solution exchange produced a period of rapid depolarization and increased AP firing, followed by a period of channel inactivation and reduced AP firing. After channel inactivation, neurons characteristically would hyperpolarize to hold at a membrane voltage (Vm) which was depolarized relative to control Vm, with an increase in AP firing frequency. […] External solutions were bath-applied at a flow rate of 1.5-2 ml/minute. After recording a basal control period, IKM compounds were applied for five minutes (10 minutes for in vitro SE experiments) and changes in excitatory post-synaptic current (EPSC) charge transfer or action potential (AP) frequency were analyzed during the last two minutes of IKM application.
We first measured the actions of the IKM compounds on the charge transfer during spontaneously occurring, polysynaptic bursts of AMPA receptor excitatory post-synaptic currents (EPSCs) in cultured hippocampal neurons (recorded in the presence of bicuculline methiodide and picrotoxin to inhibit GABAA receptors and D-APV to inhibit NMDA receptors). […] IKM-159 had the greatest inhibitory effect at a fixed concentration of 30 μM, producing a reduction in charge transfer of 65±5% (n=6, p<0.01). […] Despite the polar chemical nature of the compounds, recoveries to basal EPSC charge transfers were minimal.

For `O=C(O)C[C@@]12O[C@H]3C=CCN[C@H]3C1CN[C@H]2C(=O)O` (some centres unmarked) [IKM-159], the “GluA3 peak amplitude as percent of basal peak amplitude” value [1] was 83±2%, the “reduction in GluA3 peak current amplitude” value [1] was 17±2% and the “AMPA EPSC peak amplitude as percent of control peak amplitude” value [2] was 66±5%. For the same compound, the “reduction of mean amplitude of AMPA receptor EPSCs” value [2] was 34±5%, the “time synaptic amplitudes remained depressed after application” value [2] was over 10 min and the “mean AMPA receptor EPSC amplitude in presence of compound” value ([2]; control 560±20 pA) was 370±40 pA. For the same compound, the “reduction from control charge transfer” value [3] was 65±5% and the “charge transfer during bursts of AMPA receptor-mediated synaptic events as a percent of the charge transfer during the control period” value ([3]; voltage clamped at −70 mV) was 35±5%.
